# Literature values, collected in patent US20110294763A1, “TRANSDERMAL DELIVERY OF DICOLFENAC, CARBAMAZEPINE AND BENZYDAMINE” (priority 2009, published 2011).
smiles,measurement,value
CN(C)CCCOc1nn(Cc2ccccc2)c2ccccc12 [Benzydamine base],Solubility in water,insoluble
